Experimental data: patent US6448062B1, “Simultaneous cleaning and decontaminating compositions and methods” (priority 1998, dated 2002)
Like-named read-outs stand apart in the source and are kept apart here.

Tests used:
[1] = system: Mycobacterium bovis (ATCC 35743); type: cell-based
Azocasein [2] = assay: In-situ protease activity assay: azocasein hydrolysis (Abs390) in H2O2/enzyme solutions; settings: for Absorbance (normalized with dilution factor) of hydrolyzed Azocasein solution at 390 nm: pH 8.5, 23° C., 1% azocasein; for Abs390 hydrolyzed azocasein solution: human chymotrypsin experiment, 23° C.
Protocol: Solutions of 7.5%^w/v H2O2 at various pH levels were prepared by adjusting the pH of 35%^w/w H2O2 solution (Degussa) with 10 mM K3PO4 in a volumetric flask in the presence of K2HPO4 (phosphate buffer, PB). The solution was diluted with 10 mM KH2PO4 solution of the same pH. […] Azocasein powder was added to the H2O2/Alcalase® mixed solutions to yield 0.4%^w/v azocasein. After 30 min at 23° C., 5 ml azocasein solution was mixed with 5 ml 10%^w/v TCA solution. Precipitates were removed after 15 min by filtration, and the supernatant Abs390 was measured.
One half hour prior to various time points (listed in Tables 5a-d), azocasein powder was added to the solution in an amount of 0.4% of the total solution weight. Abs390 of the solution was measured as in Example 4 except that the supernatant was diluted 6-7 fold to avoid saturation of the UV spectrophotometer.
An additional experiment employing the same method was conducted with human chymotrypsin.

[3] = 25 minutes contact at 20° C.; cited from earlier work
[4] = system: spores of Bacillus subtilis (ATCC #19659); assay: AOAC test for Sporicidal Activity of Disinfectants, porcelain penicylinders, no organic soil load; type: cell-based; settings: for Results: positive penicylinders: exposure 4 hours
Azocasein [5] = assay: Azocasein hydrolysis (Abs390) by human trypsin or chymotrypsin in PAA/H2O2; settings: 23° C.
Protocol: The activity for the PAA/H2O2 solution alone as a control is also given. […] A volume of 4.05 ml of 10 mM K3PO4 buffer was combined with 0.45 ml initial trypsin buffer solution and 45 mg Azocasein to prepare the trypsin/phosphate buffer solution for the test.
A 0.22%^w/v PAA/1.17%^w/v H2O2 solution was prepared using a dilution of Degussa's 4.9%^w/w PAA/26.6%^w/w H2O2 in a volumetric flask. A volume of 4.05 ml of the latter solution was mixed with 0.45 ml initial trypsin/phosphate buffer solution and 45 mg Azocasein powder.
At 2.8 and 7 h, 1.5 ml sample aliquots were removed from the above three solutions and reacted with 1.5 ml of 10%^w/v trichloroacetic acid stop reagent. After incubating for 15-20 min, the solutions were filtered using Whatman #3 filter paper with a syringe and a Gelman 13 mm filter holder. The filtered solutions were then analyzed with a Shimadzu UV-visible 1601 spectrophotometer Abs390.
An additional example with human chymotrypsin follows. The solutions were similarly prepared as above.

Azocasein [6] = assay: Enzyme activity in 0.368% PAA/2% H2O2, modified Novo azocasein method
Protocol: In a 100 ml volumetric flask, a solution was prepared using 7.5 ml of 4.9%^w/w (Degussa) PAA, 1 ml enzyme, and diluted with 0.2 M tris(hydroxymethyl)aminomethane to control the pH at 8.5 to yield a final concentration of 0.368%^w/v PAA/2%^w/v H2O2. […] A timer was started as soon as the combinations of enzymes and PAA/H2O2 were mixed. At periodic intervals, aliquots of the enzyme/PAA/H2O2 solutions were removed and diluted 64 times to react with the 0.6%^w/v Azocasein substrate solution in a water bath at the modified temperature of 30° C. for 30 min. After stopping the reaction with 10% TCA and filtering the precipitate, the supernatants were analyzed on a spectrophotometer at 390 nm.

With `OO` [6% H2O2 pH 1.8, hydrogen peroxide] the “% Reduction” value ([1]; contact time 5 min) was 98.65%, the “log10 Reduction” value ([1]; contact time 5 min) was 1.87 and the “% Reduction” value ([1]; contact time 10 min) was 99.25%. The “log10 Reduction” value ([1]; contact time 10 min) was 2.13, the “% Reduction” value ([1]; contact time 15 min) was 99.51% and the “log10 Reduction” value ([1]; contact time 15 min) was 2.31. The “% Reduction” value ([1]; contact time 20 min) was 99.38% and the “log10 Reduction” value ([1]; contact time 20 min) was 2.21.

With `c1ccc2[nH]nnc2c1` [Benzotriazole, 1,2,3-benzotriazole] the “Absorbance (normalized with dilution factor) of hydrolyzed Azocasein solution at 390 nm” value (Azocasein [2]; 7.4 mM Na3PO4, 0.5 h) was 0.0986 and the “Absorbance (normalized with dilution factor) of hydrolyzed Azocasein solution at 390 nm” value (Azocasein [2]; 7.4 mM Na3PO4, 4.5 h) was 0.1536.

In the case of `CC(=O)OO` [PAA, peracetic acid], the “minimum effective concentration for high-level disinfection” value [3] is listed as 0.05 %w/w.

For `OO` [Sample 10, hydrogen peroxide], the “Results: positive penicylinders” value [4] was 0 positive.

For `OO` [Sample 11, hydrogen peroxide], the “Results: positive penicylinders” value [4] was 0 positive.

For `OO` [Solutions of 7.5% H2O2 alone, hydrogen peroxide], the “exposure at which sporicidal (no positive penicylinders)” value [4] was ≤ 4 h.

With Chymotrypsin the “Absorbance Ratio of Chymotrypsin/Azocasein solutions with and without 7.5% H2O2” value (Azocasein [2]; 2 h) was 0.308, the “Absorbance Ratio of Chymotrypsin/Azocasein solutions with and without 7.5% H2O2” value (Azocasein [2]; 4 h) was 0.316 and the “Abs390 hydrolyzed azocasein solution” value (Azocasein [2]; pH 7.75, 2 h) was 2.541. For the same molecule, the “Abs390 hydrolyzed azocasein solution” value (Azocasein [2]; pH 7.75, 4 h) was 3.653, the “Absorbance at 390 nm of hydrolyzed Azocasein solution” value (shortened to “Absorbance at 390 nm”) (Azocasein [5]; pH 7.25, 2 h) was 2.716 and the “Absorbance at 390 nm” value (Azocasein [5]; pH 7.25, 4 h) was 3.674.

In the case of Trypsin: human trypsin (Sigma), the “Absorbance at 390 nm” value (Azocasein [5]; pH 7.5, 1% azocasein, 2.8 h) is reported as 1.4254 and the “Absorbance at 390 nm” value (Azocasein [5]; pH 7.5, 1% azocasein, 7 h) is reported as 1.5588.

B1: Alcalase ® 2.5 L: commercial subtilisin A liquid concentrate, 2.5 Anson units per gram (Novo Nordisk) (protein, UniProt P00780 106-379, looked up)
Subtilisin Carlsberg: AQTVPYGIPLIKADKVQAQGFKGANVKVAVLDTGIQASHPDLNVVGGASFVAGEAYNTDGNGHGTHVAGTVAALDNTTGVLGVAPSVSLYAVKVLNSSGSGSYSGIVSGIEWATTNGMDVINMSLGGASGSTAMKQAVDNAYAKGVVVVAAAGNSGSSGNTNTIGYPAKYDSVIAVGAVDSNSNRASFSSVGAELEVMAPGAGVYSTYPTNTYATLNGTSMASPHVAGAAALILSKHPNLSASQVRNRLSSTATYLGSSFYYGKGLINVEAAAQ
modifications: commercial liquid concentrate
For B1, the decrease in activity (Azocasein [6]; 0.368% PAA/2% H2O2, after 7.5 hours) was 13%, the “Absorbance (proteolytic, 390 nm)” value (Azocasein [6]; 0.368% PAA/2% H2O2, pH 8.5, 0 h) was 0.6534 and the “Absorbance (proteolytic, 390 nm)” value (Azocasein [6]; 0.368% PAA/2% H2O2, pH 8.5, 3.2 h) was 0.6417. The “Absorbance (proteolytic, 390 nm)” value (Azocasein [6]; 0.368% PAA/2% H2O2, pH 8.5, 6.5 h) was 0.6729 and the “Absorbance (proteolytic, 390 nm)” value (Azocasein [6]; 0.368% PAA/2% H2O2, pH 8.5, 7.5 h) was 0.5689.
